Experimental data reported in patent US9693556B2, “Herbicidal pyridazinone derivatives” (SYNGENTA LIMITED, priority 2011, dated 2017).

What was measured:
Assay type in all cases: in vivo
[1] = test system: Solanum nigrum (SOLNI); assay: Pre-emergence herbicidal glasshouse test on Solanum nigrum; conditions: pre-emergence, 1000 g/h, evaluated after 13 days
Summary of the method: (§1)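 Read-out: percentage herbicidal damage 13 days after spraying, given on a five-point scale (5=80-100%, 4=60-79%, 3=40-59%, 2=20-39%, 1=0-19%). Pots of standard soil; application at 1000 g/h, one day post-sowing for pre-emergence, eight days for post-emergence.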

[2] = test system: Echinochloa crus-galli (ECHCG); assay: Pre-emergence herbicidal glasshouse test on Echinochloa crus-galli; conditions: pre-emergence, 1000 g/h, evaluated after 13 days
Summary of the method: as §1

[3] = test system: Ipomoea hederacea (IPOHE); assay: Post-emergence herbicidal glasshouse test on Ipomoea hederacea; conditions: post-emergence, 1000 g/h, evaluated after 13 days
Summary of the method: as §1

[4] = test system: Alopecurus myosuroides (ALOMY); assay: Post-emergence herbicidal glasshouse test on Alopecurus myosuroides; conditions: post-emergence, 1000 g/h, evaluated after 13 days
Summary of the method: as §1

[5] = test system: Solanum nigrum (SOLNI); assay: Post-emergence herbicidal glasshouse test on Solanum nigrum; conditions: post-emergence, 1000 g/h, evaluated after 13 days
Summary of the method: as §1

[6] = test system: Ipomoea hederacea (IPOHE); assay: Pre-emergence herbicidal glasshouse test on Ipomoea hederacea; conditions: pre-emergence, 1000 g/h, evaluated after 13 days
Summary of the method: as §1

[7] = test system: Amaranthus retoflexus (AMARE); assay: Post-emergence herbicidal glasshouse test on Amaranthus retoflexus; conditions: post-emergence, 1000 g/h, evaluated after 13 days
Summary of the method: as §1

[8] = test system: Echinochloa crus-galli (ECHCG); assay: Post-emergence herbicidal glasshouse test on Echinochloa crus-galli; conditions: post-emergence, 1000 g/h, evaluated after 13 days
Summary of the method: as §1

[9] = test system: Alopecurus myosuroides (ALOMY); assay: Pre-emergence herbicidal glasshouse test on Alopecurus myosuroides; conditions: pre-emergence, 1000 g/h, evaluated after 13 days
Summary of the method: as §1

[10] = test system: Amaranthus retoflexus (AMARE); assay: Pre-emergence herbicidal glasshouse test on Amaranthus retoflexus; conditions: pre-emergence, 1000 g/h, evaluated after 13 days
Summary of the method: as §1

[11] = test system: Setaria faberi (SETFA); assay: Pre-emergence herbicidal glasshouse test on Setaria faberi; conditions: pre-emergence, 1000 g/h, evaluated after 13 days
Summary of the method: as §1

[12] = test system: Setaria faberi (SETFA); assay: Post-emergence herbicidal glasshouse test on Setaria faberi; conditions: post-emergence, 1000 g/h, evaluated after 13 days
Summary of the method: as §1

## Cn1ncc(-c2cccn(-c3cccc(C(F)(F)F)c3)c2=O)c(O)c1=O [Compound 1.152]
[1]; five point scale
  herbicidal damage, PRE Application SOLNI: 2 (2=20-39% damage)
[2]; five point scale
  herbicidal damage, PRE Application ECHCG: 2 (2=20-39% damage)
[3]; five point scale
  herbicidal damage, POST Application IPOHE: 2 (2=20-39% damage)
[4]; five point scale
  herbicidal damage, POST Application ALOMY: 1 (1=0-19% damage)
[5]; five point scale
  herbicidal damage, POST Application SOLNI: 1 (1=0-19% damage)
[6]; five point scale
  herbicidal damage, PRE Application IPOHE: 1 (1=0-19% damage)
[7]; five point scale
  herbicidal damage, POST Application AMARE: 1 (1=0-19% damage)
[8]; five point scale
  herbicidal damage, POST Application ECHCG: 1 (1=0-19% damage)
[9]; five point scale
  herbicidal damage, PRE Application ALOMY: 4 (4=60-79% damage)
[10]; five point scale
  herbicidal damage, PRE Application AMARE: 2 (2=20-39% damage)
[11]; five point scale
  herbicidal damage, PRE Application SETFA: 5 (5=80-100% damage)
[12]; five point scale
  herbicidal damage, POST Application SETFA: 1 (1=0-19% damage)

## Cn1ncc(-c2ccc(Cl)cc2[S+](C)[O-])c(O)c1=O (stereo not drawn) [Compound 1.059]
[1]
  PRE Application SOLNI herbicidal damage (five point scale): 5 (5=80-100% damage)
[2]
  PRE Application ECHCG herbicidal damage (five point scale): 5 (5=80-100% damage)
[3]
  POST Application IPOHE herbicidal damage (five point scale): 5 (5=80-100% damage)
[4]
  POST Application ALOMY herbicidal damage (five point scale): 5 (5=80-100% damage)
[5]
  POST Application SOLNI herbicidal damage (five point scale): 5 (5=80-100% damage)
[6]
  PRE Application IPOHE herbicidal damage (five point scale): 5 (5=80-100% damage)
[7]
  POST Application AMARE herbicidal damage (five point scale): 5 (5=80-100% damage)
[8]
  POST Application ECHCG herbicidal damage (five point scale): 5 (5=80-100% damage)
[9]
  PRE Application ALOMY herbicidal damage (five point scale): 5 (5=80-100% damage)
[10]
  PRE Application AMARE herbicidal damage (five point scale): 5 (5=80-100% damage)
[11]
  PRE Application SETFA herbicidal damage (five point scale): 5 (5=80-100% damage)
[12]
  POST Application SETFA herbicidal damage (five point scale): 5 (5=80-100% damage)

## C=Cn1ncc(-c2ccccc2S(C)(=O)=O)c(O)c1=O [Compound 2.054]
[1]
  PRE Application SOLNI herbicidal damage (five point scale): 5 (5=80-100% damage)
[2]
  PRE Application ECHCG herbicidal damage (five point scale): 5 (5=80-100% damage)
[3]
  POST Application IPOHE herbicidal damage (five point scale): 5 (5=80-100% damage)
[4]
  POST Application ALOMY herbicidal damage (five point scale): 5 (5=80-100% damage)
[5]
  POST Application SOLNI herbicidal damage (five point scale): 5 (5=80-100% damage)
[6]
  PRE Application IPOHE herbicidal damage (five point scale): 4 (4=60-79% damage)
[7]
  POST Application AMARE herbicidal damage (five point scale): 5 (5=80-100% damage)
[8]
  POST Application ECHCG herbicidal damage (five point scale): 5 (5=80-100% damage)
[9]
  PRE Application ALOMY herbicidal damage (five point scale): 5 (5=80-100% damage)
[10]
  PRE Application AMARE herbicidal damage (five point scale): 5 (5=80-100% damage)
[11]
  PRE Application SETFA herbicidal damage (five point scale): 5 (5=80-100% damage)
[12]
  POST Application SETFA herbicidal damage (five point scale): 5 (5=80-100% damage)

## COc1ccc(C(C)C)cc1-c1c(C(F)(F)F)ccn(-c2cnn(C)c(=O)c2O)c1=O [Compound 7.015]
[1]
  PRE Application SOLNI herbicidal damage (five point scale): 5 (5=80-100% damage)
[2]
  PRE Application ECHCG herbicidal damage (five point scale): 3 (3=40-59% damage)
[3]
  POST Application IPOHE herbicidal damage (five point scale): 3 (3=40-59% damage)
[4]
  POST Application ALOMY herbicidal damage (five point scale): 2 (2=20-39% damage)
[5]
  POST Application SOLNI herbicidal damage (five point scale): 5 (5=80-100% damage)
[6]
  PRE Application IPOHE herbicidal damage (five point scale): 4 (4=60-79% damage)
[7]
  POST Application AMARE herbicidal damage (five point scale): 5 (5=80-100% damage)
[8]
  POST Application ECHCG herbicidal damage (five point scale): 4 (4=60-79% damage)
[9]
  PRE Application ALOMY herbicidal damage (five point scale): 3 (3=40-59% damage)
[10]
  PRE Application AMARE herbicidal damage (five point scale): 5 (5=80-100% damage)
[11]
  PRE Application SETFA herbicidal damage (five point scale): 4 (4=60-79% damage)
[12]
  POST Application SETFA herbicidal damage (five point scale): 3 (3=40-59% damage)

## CN(C)c1c(Cl)ccc(-c2cnn(C)c(=O)c2O)c1F [Compound 1.064]
[1]
  PRE Application SOLNI herbicidal damage (five point scale): 1 (1=0-19% damage)
[2]
  PRE Application ECHCG herbicidal damage (five point scale): 1 (1=0-19% damage)
[3]
  POST Application IPOHE herbicidal damage (five point scale): 4 (4=60-79% damage)
[4]
  POST Application ALOMY herbicidal damage (five point scale): 1 (1=0-19% damage)
[5]
  POST Application SOLNI herbicidal damage (five point scale): 5 (5=80-100% damage)
[6]
  PRE Application IPOHE herbicidal damage (five point scale): 1 (1=0-19% damage)
[7]
  POST Application AMARE herbicidal damage (five point scale): 5 (5=80-100% damage)
[8]
  POST Application ECHCG herbicidal damage (five point scale): 1 (1=0-19% damage)
[9]
  PRE Application ALOMY herbicidal damage (five point scale): 1 (1=0-19% damage)
[10]
  PRE Application AMARE herbicidal damage (five point scale): 1 (1=0-19% damage)
[11]
  PRE Application SETFA herbicidal damage (five point scale): 1 (1=0-19% damage)
[12]
  POST Application SETFA herbicidal damage (five point scale): 1 (1=0-19% damage)

## Cn1ncc(-n2ccc(C(F)(F)F)c(-c3ccc(C(F)(F)F)nc3)c2=O)c(O)c1=O [Compound 7.010]
[1]
  PRE Application SOLNI herbicidal damage (five point scale): 5 (5=80-100% damage)
[2]
  PRE Application ECHCG herbicidal damage (five point scale): 5 (5=80-100% damage)
[3]
  POST Application IPOHE herbicidal damage (five point scale): 5 (5=80-100% damage)
[4]
  POST Application ALOMY herbicidal damage (five point scale): 5 (5=80-100% damage)
[5]
  POST Application SOLNI herbicidal damage (five point scale): 5 (5=80-100% damage)
[6]
  PRE Application IPOHE herbicidal damage (five point scale): 5 (5=80-100% damage)
[7]
  POST Application AMARE herbicidal damage (five point scale): 5 (5=80-100% damage)
[8]
  POST Application ECHCG herbicidal damage (five point scale): 5 (5=80-100% damage)
[9]
  PRE Application ALOMY herbicidal damage (five point scale): 5 (5=80-100% damage)
[10]
  PRE Application AMARE herbicidal damage (five point scale): 5 (5=80-100% damage)
[11]
  PRE Application SETFA herbicidal damage (five point scale): 5 (5=80-100% damage)
[12]
  POST Application SETFA herbicidal damage (five point scale): 5 (5=80-100% damage)

## COc1cc(-c2c(C(F)(F)F)ccn(-c3cnn(C)c(=O)c3O)c2=O)cc(OC)c1OC [Compound 7.021]
[1]
  PRE Application SOLNI herbicidal damage (five point scale): 5 (5=80-100% damage)
[2]
  PRE Application ECHCG herbicidal damage (five point scale): 5 (5=80-100% damage)
[3]
  POST Application IPOHE herbicidal damage (five point scale): 4 (4=60-79% damage)
[4]
  POST Application ALOMY herbicidal damage (five point scale): 5 (5=80-100% damage)
[5]
  POST Application SOLNI herbicidal damage (five point scale): 5 (5=80-100% damage)
[6]
  PRE Application IPOHE herbicidal damage (five point scale): 4 (4=60-79% damage)
[7]
  POST Application AMARE herbicidal damage (five point scale): 5 (5=80-100% damage)
[8]
  POST Application ECHCG herbicidal damage (five point scale): 5 (5=80-100% damage)
[9]
  PRE Application ALOMY herbicidal damage (five point scale): 5 (5=80-100% damage)
[10]
  PRE Application AMARE herbicidal damage (five point scale): 5 (5=80-100% damage)
[11]
  PRE Application SETFA herbicidal damage (five point scale): 5 (5=80-100% damage)
[12]
  POST Application SETFA herbicidal damage (five point scale): 5 (5=80-100% damage)

## Cc1cc(Cl)ccc1-c1cnn(C)c(=O)c1O [Compound 1.082]
[1]
  PRE Application SOLNI herbicidal damage (five point scale): 1 (1=0-19% damage)
[2]
  PRE Application ECHCG herbicidal damage (five point scale): 1 (1=0-19% damage)
[3]
  POST Application IPOHE herbicidal damage (five point scale): 2 (2=20-39% damage)
[4]
  POST Application ALOMY herbicidal damage (five point scale): 1 (1=0-19% damage)
[5]
  POST Application SOLNI herbicidal damage (five point scale): 4 (4=60-79% damage)
[6]
  PRE Application IPOHE herbicidal damage (five point scale): 1 (1=0-19% damage)
[7]
  POST Application AMARE herbicidal damage (five point scale): 2 (2=20-39% damage)
[8]
  POST Application ECHCG herbicidal damage (five point scale): 1 (1=0-19% damage)
[9]
  PRE Application ALOMY herbicidal damage (five point scale): 1 (1=0-19% damage)
[10]
  PRE Application AMARE herbicidal damage (five point scale): 1 (1=0-19% damage)
[11]
  PRE Application SETFA herbicidal damage (five point scale): 1 (1=0-19% damage)
[12]
  POST Application SETFA herbicidal damage (five point scale): 1 (1=0-19% damage)
